# Structures can show the parent of a compound that is named as a salt. Where a SMILES comes first, the peptide text is derived from it. Where no end group is shown, it is not given here. [ ]: non-standard residue; d: D form. dNle = CCCC[C@@H](N)C(=O)O; Ahx = NCCCCCC(=O)O; GABA = NCCCC(=O)O
# How the values were obtained:
# [1] = target: T1, HGF (Homo sapiens, UniProt P14210); experiment: HGF dimerization; assay type: biochemical; conditions: analog at 10^−10M, 30 minute incubation with heparin
# T1 construct: purchased R&D Systems (Minneapolis, Minn.)
# Procedure: HGF dimerization was assessed using PAGE followed by silver staining (Kawas et al., 2011). Human HGF at a concentration of 0.08 ng/μl with or without 6-AH analogs was incubated with heparin at a final concentration of 5 μg/ml. Loading buffer was then added to each sample and the mixture separated by native PAGE using gradient Criterion XT precast gels (4-12% Bis-Tris; Biorad Laboratories, Hercules, Calif.). Next the gel was silver stained for the detection of the HGF monomers and dimers. Bands were quantitated from digital images using a UVP phosphoimager (Upland, Calif.).
# [2] = system: MDCK cells; experiment: Inhibition of HGF-dependent scattering in MDCK cells; assay type: cell-based, canine; conditions: for inhibition of HGF-dependent scattering in MDCK cells: HGF 20 ng/ml, 48 h
# Procedure: (§1) MDCK cells were grown to 100% confluency on the coverslips in six-well plates and washed twice with PBS. The confluent coverslips were then aseptically transferred to new six well plates containing 900 μl serum free DMEM. Norleual, Hinge peptide, and/or HGF (20 ng/ml) were added to appropriate wells. Control wells received PBS vehicle. Plates were incubated at 37° C. with 5% CO2 for 48 hours. Media was removed and cells were fixed with methanol. Cells were stained with Diff-Quik Wright-Giemsa (Dade-Behring, Newark, Del.) and digital images were taken. Coverslips were removed with forceps and more digital images were captured. Pixel quantification of images was achieved using Image J and statistics were performed using Prism 5 and InStat v.3.05.
# as §1, with “h.” for “hours.”, “v.3.05 (GraphPad; San Diego, Calif.).” for “v.3.05.”
# [3] = target: T1, HGF; experiment: HGF binding, competition with 3H-Hinge
# Procedure: The binding of 6-AH analogs to HGF was assessed by competition using a soluble binding assay. 250 μl of PBS containing human HGF (1.25 ng) were incubated with ^3H-Hinge, the central dimerization domain of HGF, in the presence of varying concentrations of 6-AH analogs between 10^−13 M to 10^−7M (half-log dilutions) for 40 min at 37° C. The incubates were then spun through Bio-Gel P6 spin columns (400 μl packed volume) for 1 min to separate free and bound ^3H-Hinge and the eluent was collected. Five milliliters of scintillation fluid was added to the eluent, which contained the HGF bound ^3H-Hinge, and was then counted using scintillation counter. Total disintegrations per minute of bound ^3H-Hinge were calculated based on machine counting efficiency. The Ki values for the binding of the peptides were determined using the Prism 5. Competition binding curves were performed in triplicate.
# [4] = system: Met; experiment: Inhibition of HGF-dependent Met phosphorylation in HEK293 cells; assay type: cell-based, human; conditions: 10 min
# Procedure: HEK293 cells were seeded in 6 well tissue culture plates and grown to 95% confluency in DMEM containing 10% FBS. The cells were serum deprived for 24 h prior to the treatment to reduce the basal levels of phospho-Met. Following serum starvation, cocktails comprised of vehicle and HGF with/without 6-AH analogs were prepared and pre-incubated for 30 min at room temperature. The cocktail was then added to the cells for 10 min to stimulate the Met receptor and downstream proteins. Cells were harvested using RIPA lysis buffer (Millipore; Billerica, Mass.) fortified with phosphatase inhibitor cocktails 1 and 2 (Sigma-Aldrich; St. Louis, Mo.). The lysate was clarified by centrifugation at 15,000 n×g for 15 min, protein concentrations were determined using the BCA total protein assay (Pierce), and then appropriate volumes of the lysates were diluted with 2× reducing Laemmli buffer and heated for ten min at 95° C. Samples containing identical amounts of protein were resolved using SDS-PAGE (Criterion, BioRad Laboratories), transferred to nitrocellulose, and blocked in Tris-buffered saline (TBS) containing 5% milk for 1 h at room temperature. The phospho-Met antibody were added to the blocking buffer at a final concentration of 1:1000 and incubated at 4° C. overnight with gentle agitation. The membranes were then washed several times with water and TBS ([…]), a 1:5000 dilution of horseradish-peroxidase conjugated goat anti-rabbit antiserum was added, and the membranes further incubated for 1 h at room temperature. Proteins were visualized using the Supersignal West Pico Chemiluminescent Substrate system (Pierce, Fenton, Mo.) and molecular weights determined by comparison to protein ladders (BenchMark, Invitrogen, and Kaleidoscope, BioRad). Film images were digitized and analyzed using a UVP phosphoimager.
# [5] = system: MDCK cells; experiment: HGF-dependent MDCK cell proliferation (MTT); assay type: cell-based, canine; conditions: 10^−10 M, 4 days, HGF 10 ng/ml
# Procedure: 5000 MDCK cells were seeded into the wells of a 96 well plates in 10% FBS DMEM. To induce cellular quiescence, the cells were serum deprived for 24 h prior to initiating the treatments. Following serum starvation, 10 ng/ml HGF alone and with various concentrations of 6-AH analogs or PBS vehicle were added to the media. The cells were allowed to grow under these conditions for 4 days with a daily addition of 6-AH analogs. On the fourth day, 1 mg/ml of 1-(4, 5-Dimethylthiazol-2-yl) 3, 5-diphenylformazan reagent (MTT, Sigma-Aldrich) prepared in PBS was added to the cells and incubated for 4 h. Dimethyl sulfoxide diluted in a 0.01M glycine buffer was added to solubilize the cell membranes and the absorbance of reduced MTT in the buffer was quantitated at 590 nm using a plate reader (Biotek Synergy 2, Winooski, Vt.). HGF-dependent proliferation was determined by subtracting the basal proliferation (in the absence of HGF) from total proliferation rates in groups containing HGF.
# [6] = Blood stability studies; assay type: in vitro ADME, rat; conditions: rat, heparinized whole blood, heparinized rat blood, 37° C., single phase exponential decay; read-out: stability t1/2 in blood
# Procedure: At the end of each incubation, 20 μL of Nle^1-AngIV (100 μg/mL) was added to each sample as an internal standard. […] All samples were centrifuged at 4° C., 2300× g for 5 min and the supernatants were transferred to clean tubes.
# Samples were then separated by HPLC on an Econosphere C18 (100 mm×2.1 mm) from Grace Davison Discovery Science (Deerfield, Ill.). […] The mobile phase consisted of HPLC water (Sigma St. Louis, Mo.) with 0.1% trifluoroacetic or 0.1% heptafluorobutyric acid (Sigma St. Louis, Mo.) and varying concentrations of ACN or methanol. Separation was carried out using a gradient method, at ambient temperature and a flow rate of 0.3 mL/min (see below for more information). Stability half-lives were determined assuming a normal single phase exponential decay using Prism 5 graphical/statistical program (GraphPad, San Diego, Calif.).
# [7] = system: scopolamine treated rats; experiment: Morris water maze, scopolamine amnesia model; assay type: in vivo, rat; conditions: for mean latency to find the pedestal, final day of training / mean latency to find the pedestal, fourth day of training / mean latency to find the pedestal, day one of training: icv, scopolamine 70 nmol, Dihexa 300 pmol, Hinge 300 pmol; for mean latency to find the pedestal, final day of training / mean latency to find the pedestal, fourth day of training: vehicle 43.0 s; for mean latency to find the pedestal, day one of training: vehicle 89.3 s
# [8] = system: hippocampal neurons; experiment: Spinogenesis in mRFP-β-actin transfected dissociated hippocampal neurons; assay type: cell-based, rat
# Procedure: Hippocampal neurons ([…] cells per square cm) were cultured from P1 Sprague Dawley rats on plates coated with poly-L-lysine from Sigma (St. Louis, Mo.; molecular weight 300,000). Hippocampal neurons were maintained in Neurobasal A media from Invitrogen (Carlsbad, Calif.) supplemented with B27 from Invitrogen, 0.5 mM L-glutamine, and […] cytosine-D-arabinofuranoside from Sigma added at 2 days in vitro. Hippocampal neurons were then cultured a further 3-7 days, at which time they were either transfected or treated with various pharmacological reagents as described in (Wayman, Davare et al. 2008).
# Neurons were transfected with mRFP-β-actin on day in vitro 6 (DIV6) using LipofectAMINE™ 2000 (Invitrogen) according to the manufacturer's protocol. This protocol yielded the desired 3-5% transfection efficiency thus enabling the visualization of individual neurons. Higher efficiencies obscured the dendritic arbor of individual neurons. Expression of fluorescently tagged actin allowed clear visualization of dendritic spines, as dendritic spines are enriched in actin. On DIV7 the cells were treated with vehicle (H20) or peptides (as described in the text) added to media. On DIV12 the neurons were fixed (4% paraformaldehyde, 3% sucrose, 60 mM PIPES, 25 mM HEPES, 5 mM EGTA, 1 mM MgCl2, pH 7.4) for 20 min at room temperature and mounted. Slides were dried for at least 20 hours at 4° C. and fluorescent images were obtained with Slidebook 4.2 Digital Microscopy Software driving an Olympus IX81 inverted confocal microscope with a 60× oil immersion lens, NA 1.4 and resolution 0.280 μm Dendritic spine density was measured on primary and secondary dendrites at a distance of at least 150 μm from the soma. Five 50 μm long segments of dendrite from at least 10 neurons per data point were analyzed for each data point reported. Each experiment was repeated at least three times using independent culture preparations. Dendrite length was determined using the National Institutes of Health's Image J 1.41o program (NIH, Bethesda, Md.) and the neurite tracing program Neuron J (Meijering, Jacob et al. 2004) Spines were manually counted.
# Hippocampal neurons (2×10^5 cells per square centimeter) were cultured from P1-2 Sprague Dawley rats on plates coated with poly-L-lysine from Sigma (St. Louis, Mo.; molecular weight 300,000). Hippocampal neurons were maintained in Neurobasal A media from Invitrogen (Carlsbad, Calif.) supplemented with B27 from Invitrogen, 0.5 mM L-glutamine, and […] cytosine-D-arabinofuranoside from Sigma added at 2 days in vitro. Hippocampal neurons were then cultured a further 3-7 days, at which time they were either transfected or treated with various pharmacological reagents as described in the text or figure legends.
# [9] = system: hippocampal neurons; experiment: Whole-cell recordings of mEPSCs in dissociated hippocampal neurons; assay type: cell-based, rat; parameters: mean mEPSC frequency: unit not given beside the values; conditions: 5 days; Hinge 10^−12 M, HGF 10 ng/ml, Dihexa 10^−12 M, alone or combined; vehicle 5.31±0.35
# T1 sequence (P14210 32-728): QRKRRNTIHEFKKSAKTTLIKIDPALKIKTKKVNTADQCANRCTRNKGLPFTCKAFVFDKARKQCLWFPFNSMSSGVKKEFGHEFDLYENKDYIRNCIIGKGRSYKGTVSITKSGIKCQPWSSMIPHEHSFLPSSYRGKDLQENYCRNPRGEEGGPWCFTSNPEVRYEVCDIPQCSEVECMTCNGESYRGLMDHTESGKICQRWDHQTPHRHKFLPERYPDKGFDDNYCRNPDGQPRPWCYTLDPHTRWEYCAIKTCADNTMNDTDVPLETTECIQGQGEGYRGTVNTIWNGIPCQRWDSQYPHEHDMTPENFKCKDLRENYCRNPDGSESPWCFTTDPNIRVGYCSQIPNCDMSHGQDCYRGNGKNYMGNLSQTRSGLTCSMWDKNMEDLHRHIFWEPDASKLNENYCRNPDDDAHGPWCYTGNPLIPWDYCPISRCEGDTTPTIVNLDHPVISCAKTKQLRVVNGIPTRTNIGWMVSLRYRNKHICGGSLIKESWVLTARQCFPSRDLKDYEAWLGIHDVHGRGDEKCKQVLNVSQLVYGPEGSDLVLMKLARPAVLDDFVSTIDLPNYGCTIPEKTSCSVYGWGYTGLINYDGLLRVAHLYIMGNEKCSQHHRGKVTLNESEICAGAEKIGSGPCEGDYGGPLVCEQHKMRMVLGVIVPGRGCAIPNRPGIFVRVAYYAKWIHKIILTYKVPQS
compound,measurement,setting,value
CCCC[C@@H](N)C(=O)N[C@@H](CCSC)C(=O)N[C@H](C(=O)NCCCCCC(N)=O)[C@@H](C)CC [D-Nle-Met-Ile-NH—(CH2)5—CONH2] (H-[dNle]MI[Ahx]-NH2),inhibition of HGF dimerization,[1],unable to block dimerization at the concentration tested
same,inhibition of HGF-dependent scattering in MDCK cells,[2],not different
same,affinity for HGF (in words),[3],low affinity for HGF
same,inhibition of HGF-dependent Met phosphorylation,[4],no ability to effect on Met activation
same,inhibition of HGF-dependent Met phosphorylation,[4]; listed as Met,not different than the HGF group
CCCC[C@@H](N)C(=O)N[C@@H](Cc1c[nH]c2ccccc12)C(=O)N[C@H](C(=O)NCCCCCC(N)=O)[C@@H](C)CC [D-Nle-Trp-Ile-NH—(CH2)5—CONH2] (H-[dNle]WI[Ahx]-NH2),inhibition of HGF dimerization,[1],intermediate inhibition of dimerization
same,inhibition of HGF dimerization,[1]; listed as Trp,statistically different than the HGF treated group
same,inhibition of HGF-dependent scattering in MDCK cells,[2],different from the HGF alone group but not different from the control group
same,affinity for HGF (in words),[3],moderate affinity for HGF
same,inhibition of HGF-dependent Met phosphorylation,[4],intermediate inhibitory activity
same,inhibition of HGF-dependent MDCK cell proliferation,[5],"inhibitory activity, albeit less than that observed with the most potent analogs"
"CCCC[C@H](N)C(=O)N[C@@H](Cc1ccc(O)cc1)C(=O)N[C@H](CN[C@@H](Cc1c[nH]cn1)C(=O)N1CCC[C@H]1C(=O)N[C@@H](Cc1ccccc1)C(=O)O)CC(C)C [Norleual, Nle-Tyr-Leu-Ψ-(CH2—NH2)^3-4-His-Pro-Phe, reference compound]",half-life,[6],< 5 min
"CN1[C@@H]2C[C@@H](OC(=O)[C@H](CO)c3ccccc3)C[C@H]1[C@@H]1O[C@@H]12 [scopolamine, scopolamine hydrobromide, reference compound]","mean latency to find the pedestal, final day of training",[7],84.8 s
same,"mean latency to find the pedestal, fourth day of training",[7],102.4 s
same,"mean latency to find the pedestal, day one of training",[7],114.7 s
"DYIRNC (Synthetic hinge peptide) [HGF antagonist peptide representing the dimerization (hinge) domain of HGF; also printed KDYIRN, reference compound]","mean latency to find the pedestal, final day of training",[7],46.1 s
same,"mean latency to find the pedestal, fourth day of training",[7],78.3 s
same,"mean latency to find the pedestal, day one of training",[7],111.1 s
same,inhibition of spine formation in stimulated neurons,"[8]; neurons stimulated with 10 ng/ml HGF, 10^−12 M Nle1-AngIV or 10^−12 M Dihexa",effectively inhibit spine formation
same,effect of Hinge alone on basal spinogenesis,[8]; wide range of doses,no effect on spinogenesis over a wide range of doses
same,inhibition of scattering of MDCK cells by Hinge,[2],inhibit scattering of Madin-Darby canine kidney (MDCK) cells
same,mean mEPSC frequency,[9],4.51±0.47
Nle-YIH-amide,dendritic spine numbers,[8]; 10^-8 and 10^-10 M,increased spine numbers
[GABA]-Tyr-Ile [GABA-YI],"time in the target quadrant, day 9 probe trial",[7]; analog 1 nmol icv after scopolamine,different than all the other treated groups
same,dendritic spine numbers,[8]; 10^-8 and 10^-10 M,increased spine numbers
acetyl-Nle-YIH,dendritic spine numbers,[8]; 10^-8 and 10^-10 M,increased spine numbers
same,dendritic spine numbers,[8]; concentrations lower than 10^-10 M,increasing spine numbers at even lower concentrations

# Reference: patent US20170049843A1, “Hepatocyte Growth Factor Mimics as Therapeutic Agents” (WASHINGTON STATE UNIVERSITY, priority 2011, published 2017)
